Source: patent publication US6521645B2, “Methods for the treatment and prevention of urinary stone disease” (The University of Kansas Medical Center, priority 2000, dated 2003)
Where two headings read alike, the source gives them in different places.

Tests used:
[1] = rat model of hyperoxaluria; cited from earlier work
[2] = cited from earlier work
[3] = diabetic rat model, 7 months, same dose; cited from earlier work
[4] = Urinary oxalate excretion in pyridoxamine-treated rats (oxalate oxidase method); type: in vivo, Sprague-Dawley rats; details: pyridoxamine in drinking water, 1.2 μm/day/gram body weight
Experimental: (§1) Two month old Sprague-Dawley rats were housed individually in metabolic cages and fed standard powdered stock rations. […] To minimize possible chemical degradation of pyridoxamine, fresh solutions were prepared daily and administered in water bottles wrapped in aluminum foil.
Twenty-four hour urine samples were collected under toluene (to inhibit bacterial growth) using containers with 2 M hydrochloric acid to minimize spontaneous breakdown of urinary ascorbic acid to oxalate (21). The urine samples were stored at −70° C. until further analysis. Under these conditions, frozen urine can be stored for at least 1 month with no effect on oxalate measurements (22). Collected urine samples were analyzed to determine concentrations of oxalate using the oxalate oxidase method (23). This assay is highly specific and sensitive to about 10 μM (23). Oxalate oxidase from Barley seedlings was purchased from Sigma Co. (St. Louis, Mo.). The method is based on the conversion of oxalate to hydrogen peroxide and carbon dioxide by oxalate oxidase. […] was determined enzymatically with horseradish peroxidase by oxidative coupling of 3-methyl-2-benzothiazolinone hydrazone with N,N-dimethylaniline. The resulting colored product was determined spectrophotometrically at 595 nm. The modified sample preparation procedure was used, which replaces column chromatography with a simple precipitation step (24).

[5] = Ethylene glycol (EG) rat model of experimental hyperoxaluria; type: in vivo; details: rats given EG […] solution in drinking water; predicted result
Excerpt: Both compounds are precursors of oxalate synthesis and their administration results in increased urinary oxalate concentration. […] The use of two different models also helps to minimize possible model-specific adverse effects. […] The results for Day-14 oxalate are known by Day 15, at which time the animals within each group (Control, EG) are pair-matched according to their Day-14 oxalate. The pyridoxamine and no-pyridoxamine groups therefore begin the pyridoxamine-treatment period with nearly identical mean and standard deviation oxalate excretion, which optimizes the sensitivity of this experimental design.

[6] = Body weight, behavior and water consumption of pyridoxamine-treated rats; type: in vivo, Sprague-Dawley rats
Experimental: as §1

oxalate oxidase = molecular target: T1, oxalate oxidase (Hordeum vulgare, UniProt P45850); experiment: Interference of pyridoxamine with urinary oxalate determination by oxalate oxidase method; parameters: species or system Barley; details: pyridoxamine added to assay mixtures, final concentration 2 mg/ml
T1 construct: Oxalate oxidase from Barley seedlings was purchased from Sigma Co; purchased Sigma Co. (St. Louis, Mo.); host or cells: barley seedlings (natural source)
T1 sequence (P45850 1-201): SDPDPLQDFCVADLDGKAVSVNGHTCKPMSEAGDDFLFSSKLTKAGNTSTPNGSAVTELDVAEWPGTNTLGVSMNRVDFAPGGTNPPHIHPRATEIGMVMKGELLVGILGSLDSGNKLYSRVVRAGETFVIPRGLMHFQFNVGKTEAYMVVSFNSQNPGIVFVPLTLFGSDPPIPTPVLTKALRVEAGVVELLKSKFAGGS
Experimental: Twenty-four hour urine samples were collected under toluene (to inhibit bacterial growth) using containers with 2 M hydrochloric acid to minimize spontaneous breakdown of urinary ascorbic acid to oxalate (21). The urine samples were stored at −70° C. until further analysis. […] Collected urine samples were analyzed to determine concentrations of oxalate using the oxalate oxidase method (23). This assay is highly specific and sensitive to about 10 μM (23). […] The method is based on the conversion of oxalate to hydrogen peroxide and carbon dioxide by oxalate oxidase. The latter was determined enzymatically with horseradish peroxidase by oxidative coupling of 3-methyl-2-benzothiazolinone hydrazone with N,N-dimethylaniline. The resulting colored product was determined spectrophotometrically at 595 nm. The modified sample preparation procedure was used, which replaces column chromatography with a simple precipitation step (24).

[7] = cited from earlier work; remark: listed apart in the source

## O=C1N[C@H](C(=O)O)CS1 [OTZ, (L)-2-oxothiazolidine-4-carboxylate]
[1]
  urinary oxalate concentration: decrease
[2]; normal individuals
  urinary oxalate levels: decreased
[2]; patients, administered for only 48 hours
  adverse effects: mild to moderate adverse effects

## Cc1ncc(CO)c(CN)c1O.Cl.Cl [pyridoxamine, Pyridoxamine dihydrochloride]
[3]
  therapeutic effect of the dose: had therapeutic effects
[4]
  statistical significance of the urinary oxalate difference from controls: statistically different from controls after 12 days
  urinary oxalate levels versus controls: consistently lower
[5]
  oxalate excretion: significantly reduce
[6]
  general behavior versus control group: no difference
  weight gain versus control group: no difference
[6]; Day 1
  Weight: 315 ± 6 grams
[6]; Day 26
  Weight: 363 ± 16 grams
Oxalate oxidase
  effect on oxalate measurements: no effect

## Cc1ncc(CO)c(CO)c1O [pyridoxine]
[7]; stone formers, 200 mg daily
  urinary oxalate levels: did not reduce
[7]; women, 40 mg/day
  risk of kidney stone formation: reduced risk
